According to ChEMBL document CHEMBL1130440, “N-Methyl-2-[4-(2-methylpropyl)phenyl]-3-(3-methoxy-5-methylpyrazin-2-ylsulfamoyl)benzamide; one of a class of novel benzenesulphonamides which are orally-active, ETA-selective endothelin antagonists” (Bioorg Med Chem Lett, 1997):
pIC50: −log10 of the molar value.

How the values were obtained:
Rattus norvegicus [1] = assay: In vivo mean dose ratio (MDR) activity against the pressor response induced by big ET-1 in alderley park rats at 1 hr after (1 mg/kg) oral administration; type: functional
Endothelin-1 receptor = target: T1, Endothelin-1 receptor (Homo sapiens, UniProt P25101); assay: In vitro binding was measured by the displacement of [125I]ET1 from membranes prepared from MEL cells transfected with cloned human ETA receptors; type: cell membranes
T1 sequence (P25101 whole entry): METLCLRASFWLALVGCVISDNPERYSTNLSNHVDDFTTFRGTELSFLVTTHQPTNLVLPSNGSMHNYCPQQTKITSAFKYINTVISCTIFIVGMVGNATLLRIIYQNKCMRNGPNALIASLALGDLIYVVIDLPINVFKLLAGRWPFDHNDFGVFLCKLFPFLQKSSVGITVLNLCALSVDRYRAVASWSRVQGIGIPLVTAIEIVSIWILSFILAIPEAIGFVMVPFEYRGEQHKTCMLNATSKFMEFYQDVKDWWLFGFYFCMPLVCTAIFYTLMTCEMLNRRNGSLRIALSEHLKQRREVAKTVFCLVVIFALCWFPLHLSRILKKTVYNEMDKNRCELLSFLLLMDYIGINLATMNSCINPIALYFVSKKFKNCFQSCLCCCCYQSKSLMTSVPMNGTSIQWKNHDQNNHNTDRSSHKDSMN

Rattus norvegicus [2] = assay: In vivo mean dose ratio(MDR) activity against the pressor response induced by big ET-1 in alderley park rats at 2 hr after (2.5 mg/kg) oral administration; type: functional
Rattus norvegicus [3] = assay: In vivo mean dose ratio(MDR) activity against the pressor response induced by big ET-1 in alderley park rats at 30 min after (2.5 mg/kg) oral administration; type: functional
Rattus norvegicus [4] = assay: In vivo mean dose ratio(MDR) activity against the pressor response induced by big ET-1 in alderley park rats at 4 hr after (2.5 mg/kg) oral administration; type: functional

| Compound | pIC50 (Endothelin-1 receptor) | MDR (Rattus norvegicus [1]) | other results |
| --- | --- | --- | --- |
| COc1nc(Br)cnc1NS(=O)(=O)c1ccccc1-c1ccccc1 | 7.50 | – | – |
| COc1nc(Br)cnc1NS(=O)(=O)c1ccccc1-c1ccc(CC(C)C)cc1 | 7.40 | – | – |
| COCCNC(=O)c1cccc(S(=O)(=O)Nc2ncc(Br)nc2OC)c1-c1ccc(CC(C)C)cc1 | 8.80 | 2.1 | – |
| CNC(=O)c1cccc(S(=O)(=O)Nc2ncc(Br)nc2OC)c1-c1ccccc1 | 7.40 | – | – |
| CCCCCNC(=O)c1cccc(S(=O)(=O)Nc2ncc(Br)nc2OC)c1-c1ccccc1 | 8.40 | – | – |
| COc1nc(Br)cnc1NS(=O)(=O)c1cccc(C(N)=O)c1-c1ccccc1 | 7.40 | – | – |
| CCCCCNC(=O)c1cccc(S(=O)(=O)Nc2ncc(Br)nc2OC)c1-c1ccc(CC(C)C)cc1 | 6.70 | – | – |

Second part, led by results:

| pIC50 (Endothelin-1 receptor) | Compound | MDR (Rattus norvegicus [1]) | other results |
| --- | --- | --- | --- |
| 9.30 | COCCNC(=O)c1cccc(S(=O)(=O)Nc2ncc(C)nc2OC)c1-c1ccc(CC(C)C)cc1 | 3.2 | – |
| 9.00 | COc1nc(C)cnc1NS(=O)(=O)c1cccc(C(N)=O)c1-c1ccc(CC(C)C)cc1 | 2.4 | – |
| 9.00 | COc1nc(Br)cnc1NS(=O)(=O)c1cccc(C(=O)N(C)C)c1-c1ccc(CC(C)C)cc1 | – | – |
| 8.60 | COc1nc(C)cnc1NS(=O)(=O)c1cccc(C(=O)N(C)C)c1-c1ccc(CC(C)C)cc1 | 1.6 | – |
| 9.20 | COc1nc(C)cnc1NS(=O)(=O)c1cccc(C(=O)NCCO)c1-c1ccc(CC(C)C)cc1 | 4.2 | – |
| 9.10 | COc1nc(Br)cnc1NS(=O)(=O)c1cccc(C(N)=O)c1-c1ccc(CC(C)C)cc1 | – | – |
| 9.30 | CNC(=O)c1cccc(S(=O)(=O)Nc2ncc(C)nc2OC)c1-c1ccc(CC(C)C)cc1 | 3.2 | Oral activity (Rattus norvegicus [2]): 3.3; Oral activity (Rattus norvegicus [3]): 6.2; Oral activity (Rattus norvegicus [4]): 4 |
| 8.90 | CNC(=O)c1cccc(S(=O)(=O)Nc2ncc(Br)nc2OC)c1-c1ccc(CC(C)C)cc1 | 2.7 | – |
